# Data taken from patent publication US12480089B2, “Antiviral treatment comprising Blis containing probiotic products” (BLIS TECHNOLOGIES LIMITED, priority 2020, dated 2025).
# What was measured:
# Type in all cases: cell-based
# [1] = system: influenza B (Brisbane/60/2008 strain); assay: Neutral red CPE assay, influenza B in MDCK cells; conditions: DMEM + trypsin + EDTA, max CPE day 3
# Method: K12 and M18 were tested for in vitro antiviral activity against RSV (A2 strain) and influenza B (Brisbane/60/2008 strain).
# Samples were serially diluted using four 2-fold dilutions in media so that the starting (high) test concentration was 50%. Media for MDCK cells included DMEM+10 U/ml trypsin+1 ug/mL EDTA. Each dilution was added to 5 wells of a 96-well plate with 80-100% confluent cells. Three wells of each dilution were infected with virus, and two wells remained uninfected as toxicity controls. Six wells were infected and untreated as virus controls, and six wells were uninfected and untreated as cell controls. A positive control compound, ribavirin, was tested in parallel. Plates were incubated at 37±2° C., 5% CO2.
# Once untreated virus control wells reached maximum CPE on the day indicated in the table below, plates were stained with neutral red dye for approximately 2 hours (±15 minutes). Supernatant dye was removed and wells rinsed with PBS, and the incorporated dye was extracted in 50:50 Sorensen citrate buffer/ethanol for >30 minutes and the optical density was read on a spectrophotometer at 540 nm.
# The selective index (SI) is the CC50 divided by EC50.
# [2] = system: RSV (A2 strain); conditions: MA-104, DMEM, max CPE day 6
# [3] = system: Influenza A virus H3N2; assay: Neutral red CPE assay, Influenza A in MDCK cells; conditions: strain samples: resuspension medium DMEM, time to produce antiviral activity 6
# Method: The antiviral activity of S. salivarius sample preparations were evaluated against severe acute respiratory syndrome coronavirus 2 (SARS-CoV-2) and Influenza A virus H3N2 in neutral red (NR) assays to evaluate inhibition of viral-induced cytopathic effect (CPE).
# Neutral red assay: Samples were received frozen on dry ice and stored at −20° C. upon arrival. All 10 samples were serially diluted in test medium using 4 1:2 dilutions so that the starting (high) test concentration was 50% sample. Each dilution was added to 5 wells of a 96-well plate with 80-90% confluent Vero 76 (SARS-CoV-2) or MDCK (Influenza) cells.
# Three wells of each dilution were infected with virus, and two wells remained uninfected as toxicity controls. On each plate, six untreated wells were infected as virus controls, and six untreated wells were left uninfected to use as cell controls.
# Viruses were diluted to a specific 50% cell culture infectious dose (CCID50) per mL to achieve the lowest possible multiplicity of infection (MOI) that would yield >80% cytopathic effect (CPE) within 3-5 days. […]
# Supernatant dye was removed, wells rinsed with PBS, and the incorporated dye was extracted in 50:50 Sorensen citrate buffer/ethanol for >30 minutes and the optical density was read on a spectrophotometer at 540 nm. […]
# [4] = system: SARS-CoV-2, USA-WA1/2020 strain
smiles,measurement,setting,value
"NC(=O)c1ncn([C@@H]2O[C@H](CO)[C@@H](O)[C@H]2O)n1 [Ribavirin, ribavirin]",SI Index,[1],>320
same,SI Index,[2],14
same,SI Index,[3],>590
CCO [Ethanol],Round 1 virus titer,"[4]; 30-minute contact at room temperature, 90% preparation and 10% virus solution, virus control 4.2",1.1 log 10 CCID50 per 0.1 mL
same,Round 2 Virus titer,"[4]; 30-minute contact at room temperature, 90% preparation and 10% virus stock, virus control 4.0",<0.67 log 10 CCID50 per 0.1 mL
same,Log Reduction value,"[4]; Round 2, compared to virus control",3.33
